Data as given in patent US20240279338A1, “Combination Treatment of Cancer” (Ares Trading S.A., priority 2021, published 2024).

Assays:
[1] = system: E0771 cells; assay: CD73hi E0771 syngeneic tumor model, tumor growth; assay type: in vivo, mice; conditions: for tumor growth inhibition, T/C: E0771, female C57BL/6 mice, Day 18 post treatment initiation
Method: Female C57BL/6 mice were inoculated with 1.5×10^5 E0771 cells into the right mammary fat pad and were treated with Compound A (300 mg/kg po, BID), bintrafusp alfa (8.2 mg/kg iv, days 0, 3, 6), Compound A+bintrafusp alfa, when average tumor volume reached approximately 75 mm^3. Vehicle (po, BID) and isotype control antibody injections (6.65 mg/kg iv, days 0, 3, 6) were used as controls. (A) Average tumor volumes with SEM, and (B) individual tumor volumes are presented. Tumor volume data were analyzed using two-way ANOVA followed by Tukey's multiple comparison test.
To determine whether combined treatment with the dual A2A/A2B receptor inhibitor “Compound A” ((S)-7-Oxa-2-aza-spiro[4.5]decane-2-carboxylic acid [7-(3,6-dihydro-2H-pyran-4-yl)-4-methoxy-thiazolo[4,5-c]pyridin-2-yl]-amide) and bintrafusp alfa can inhibit tumor growth in either CD73^hi or CD73^low models, tumor growth was monitored in […] syngeneic tumor models. Animals were inoculated with either CD73^hi tumor cells (4T1, E0771, or EMT6) or with CD73^low MC38, H22 or MBT2 tumor cells. For all tumor models, animals were treated with either 1) vehicle and isotype, 2) Compound A and isotype, 3) vehicle and bintrafusp alfa, or 4) Compound A and bintrafusp alfa.
In the third CD73^hi tumor model, female C57BL/6 mice were inoculated with 1.5×10^5 E0771 cells into the right mammary fat pad and were randomized into treatment groups when average tumor volume reached approximately 75 mm^3. […] Thus, to test its combination potential with Compound A in this model we had to reduce the dose for bintrafusp alfa from 24 mg/kg (iv, days 0, 3, and 6) down to 8.2 mg/kg (iv, days 0, 3, 6). Thus, E0771 tumor-bearing mice were treated with Compound A (300 mg/kg po, BID), bintrafusp alfa (8.2 mg/kg iv, days 0, 3, 6), Compound A+bintrafusp alfa starting the day 0 (when they were randomized into treatment groups). Vehicle (po, BID) and isotype control antibody injections (6.65 mg/kg iv, days 0, 3, 6) were used as controls.

[2] = system: CD73 KO 4T1 tumor cells; assay: CD73-KO 4T1 syngeneic tumor model, tumor growth; assay type: in vivo; conditions: CD73 KO 4T1, female BALB/c mice; Day 18 post treatment initiation; Compound A 300 mg/kg po bid; bintrafusp alfa 24.6 mg/kg iv days 0, 3, 6
Method: Female BALB/c mice were inoculated with 1×10^5 CD73 KO 4T1 tumor cells into the right mammary fat pad and were treated with Compound A (300 mg/kg po, bid), bintrafusp alfa (24.6 mg/kg iv, days 0, 3, 6), Compound A+bintrafusp alfa, when average tumor volume reached approximately 60 mm^3. Vehicle (po, bid) and isotype control antibody injections (20 mg/kg iv, days 0, 3, 6) were used as controls. (A) Average tumor volumes with SEM, and (B) individual tumor volumes are presented. Tumor volume data were analyzed using two-way ANOVA followed by Tukey's multiple comparison test.
Further to the results of Example 3, tumor growth inhibition by the combined treatment with the dual A2A/A2B receptor inhibitor “Compound A” ((S)-7-Oxa-2-aza-spiro[4.5]decane-2-carboxylic acid [7-(3,6-dihydro-2H-pyran-4-yl)-4-methoxy-thiazolo[4,5-c]pyridin-2-yl]-amide) and bintrafusp alfa was examined in a syngeneic 4T1 tumor model, in which CD73 was knocked-out using GenCRISPR™ gene editing technology (GenScript USA, Inc). Efficacy of CD73 knockout in 4T1 tumor cells was confirmed by flow cytometry. Female BALB/c mice were inoculated into the right mammary fat pad with 1×10^5 CD73 KO 4T1 tumor cells and were treated with Compound A (300 mg/kg po, bid), bintrafusp alfa (24.6 mg/kg iv, days 0, 3, 6), Compound A+bintrafusp alfa, when average tumor volume reached approximately 60 mm^3. […]

[3] = system: human T cells co-cultured with MDA-MB-231 tumor cells; assay: Rescue of IFNγ secretion from EBV-specific human T cells co-cultured with MDA-MB-231 tumor cells in presence of NECA; assay type: cell-based; conditions: Compound A 100 nM; bintrafusp alfa 1 μg/ml; 10 μM NECA; 74 hours of co-culture; T cells:tumor cells 0.5:1; ELISA
Method: Then 10 μM NECA was added to the corresponding groups and 1.3×10^4 of T cells in 100 μl volume were transferred per well of 96-well flat bottom plate with 2.6×10^4 cells/well of MDA-MB-231 tumor cells pre-loaded with EBV peptide (30 ng/ml, […], 21st Century) in 100 μl of RPM11640 media, supplemented with 10% FBS. The final ratio for T cells:MDA-MB-231 tumor cells=0.5:1. Cell culture supernatants were collected after 74 hours of co-culture, and IFNγ levels were measured using human IFNγ ELISA Kit (R&D Systems) according to manufacturer instructions. The percentage of IFNγ secretion rescue was calculated using following formula: 100%−(IFNγ in samples treated with NECA and Compound A alone or combination with bintrafusp alfa minus IFNγ in control sample)[…](IFNγ in samples with NECA minus IFNγ in control sample)*100%. Representative graph with the results shown as average of three samples per treatment group±SEM. P-values are calculated using one-way ANOVA Tukey comparison test. […]
Briefly, MDA-MB-231 tumor cells were seeded to the flat bottom 96-well plate at 2.6×10^4 cells/well (in 100 μl of RPMI1640 media, supplemented with 10% FBS) and loaded with EBV peptide (30 ng/ml, […], 21st Century). […] Cell culture supernatants were collected after 74 hours of co-culture, and IFNγ levels were measured using human IFNγ ELISA Kit (R&D Systems) according to manufacturer instructions. […]

[4] = Compound A 300 mg/kg po BID, bintrafusp alfa 8.2 mg/kg iv days 0, 3, 6

Compound	tumor growth inhibition, T/C [1, 4]	mice with CR (complete responses) ([1]; E0771, Compound A 300 mg/kg po BID, bintrafusp alfa 8.2 mg/kg iv days 0, 3, 6)	tumor growth inhibition, T/C [2]	rescue of IFNγ secretion [3]	sensitivity of the tumor model ([1]; E0771, bintrafusp alfa original dose 24.6 mg/kg iv days 0, 3, and 6)
COc1ncc(C2=CCOCC2)c2sc(NC(=O)N3CC[C@@]4(CCCOC4)C3)nc12 [Compound A, (S)-7-Oxa-2-aza-spiro[4.5]decane-2-carboxylic acid [7-(3,6-dihydro-2H-pyran-4-yl)-4-methoxy-thiazolo[4,5-c]pyridin-2-yl]-amide]	72.9%	1	108%	approx. 71%	–
bintrafusp alfa: anti-PD-L1:TGFβRII fusion protein, CAS 1918149-01-5; human IgG1 antibody against PD-L1 fused to extracellular domain of human TGF-β receptor II	65.7%	–	75.4%	~24%	high sensitivity
